3 compounds from patent publication US8354102B2, “Antibodies directed to mGluR7” (Hoffmann-La Roche Inc., priority 2007, dated 2013) can be followed below.

In the oligonucleotide strings, read from the 5' end, every base follows the letter of its sugar. An asterisk marks phosphorothioate; unmarked linkages are phosphodiester. Other units and linkages are bracketed, terminal groups are in braces. A string of capitals states the bases alone. [C6SSC6] = C6-disulfide-C6 linker; {Cy5} = Cy5 fluorescent dye label; d = 2'-deoxy (DNA); m = 2'-O-methyl; r = 2'-OH (RNA)

The test system of series [1] is p44/42 MAPK (Thr202/Tyr204) in CHO cells expressing mGlu7 receptors. Nature of the series: p44/42 MAPK activities (PathScan Sandwich ELISA) in CHO cells expressing mGlu7 receptors. Particulars: 5 minutes stimulation; FIG. 8C. The format is cell-based, rat. The procedure:
Cells stably expressing the rat mGluR7 receptor are seeded in growth medium in 6 well plates. The next day, medium is replaced with 2 ml starvation medium (Opti-MEM with 0.1% fatty acid free BSA). The following day cells are stimulated with compound in 150 μl starvation medium for the indicated times at 37° C., otherwise cells are stimulated for 5 minutes. Cells are washed with ice cold PBS and lyzed in 150 ul buffer containing 1 mM β-glycerophosphate 1 mM EDTA, 1 mM EGTA, 1 μg/ml leupeptin, 150 mM sodium chloride, 2.5 mM sodium phosphate, 20 mM Tris-Cl, 1 mM PMSF and 1% Triton X-100, scraped off and sonicated on ice. After centrifugation the supernatant is analyzed for p44/42 MAPK activities using the PathScan™ Sandwich ELISA kit according to instructions of the manufacturer. Absorbance ([…]) is read using the EnVision reader (Perkin Elmer).

Another series has as its target T1, rat mGlu7a receptor (Rattus norvegicus, UniProt P35400).
T1 construct: expressed in transfected cells
Nature of the series: CRE-luciferase reporter gene assay in rat mGlu7a transfected CHO clones. The format is cell-based. Particulars: 1 μM forskolin and 0.5 mM L-AP4, 4 h; responses across clones ranged from no depression to this maximum. The source says: The cDNA of the rat mGlu7a receptor splice variant (Genbank: D16817) was inserted into a eukaryotic expression vector pcDNA3.1(+). This plasmid was transfected into CHO cells deficient in dihydrofolate reductase activity (CHO-dhfr^−) harboring a luciferase reporter gene under the control of 5 cAMP-responsive elements (CRE) using Lipofectamine plus according to the instruction of the manufacturer. Clones were isolated through limited dilutions and identified by activities in the reporter gene assay. Cells were stimulated with 1 μM forskolin and 0.5 mM L-AP4 in the assay buffer. After 4 h the supernatant was exchanged with lysis buffer and the luciferase activity measured. Responses ranged from no depression to about 83% depression. A clonal cell line displaying the greatest inhibition of forskolin-mediated luciferase activity was selected and identified as giving consistently good responses for up to at least 20 passages.
(In a reporter assay the amount or activity of a reporter protein is the signal.)

For another series, the target named is T2, rat mGluR7 receptor (Rattus norvegicus, UniProt P35400).
T2 construct: expressed in transfected cells
Nature of the series: Antibody mediated cellular uptake of siRNA-Cy5 in mGluR7 expressing CHO cells. It is filed as cell-based. Particulars: mix of 67 nM primary antibody and 20 nM siRNA-Cy5, 37° C., 40 minutes; FIG. 5 E-H. The procedure: The experiment was carried out according to the protocol, with the following modifications: The cells were incubated with 67 nm primary antibody conjugated to siRNA-Cy5 (Molar ratio 1 to 0.3) or a mix of 67 nM primary antibody and 20 nM siRNA-Cy5 at 37° C. for 40 minutes. The secondary antibody used for detection of cell surface primary immunostaining was labelled with Alexa488 and the secondary antibody used for detection of whole cell primary immunostaining was labelled with Alexa532. The Trueblue and hoechst staining of the cytoplasm was replaced with a staining step following the formaldehyde fixation, where the samples where incubated with 3 uM Hoechst and 2 μg/ml CellmaskBlue in PBS for 15 minutes at roomtemperature followed by a second fixation with 4% formaldehyde for 15 minutes at roomtemperature.
Each row contains images acquired in parallel of the same field of view in the well. Panel A-D is with primary antibody labelled with siRNA-Cy5, panel E-H with primary antibody mixed with siRNA-Cy5.

T2 sequence (P35400 35-915): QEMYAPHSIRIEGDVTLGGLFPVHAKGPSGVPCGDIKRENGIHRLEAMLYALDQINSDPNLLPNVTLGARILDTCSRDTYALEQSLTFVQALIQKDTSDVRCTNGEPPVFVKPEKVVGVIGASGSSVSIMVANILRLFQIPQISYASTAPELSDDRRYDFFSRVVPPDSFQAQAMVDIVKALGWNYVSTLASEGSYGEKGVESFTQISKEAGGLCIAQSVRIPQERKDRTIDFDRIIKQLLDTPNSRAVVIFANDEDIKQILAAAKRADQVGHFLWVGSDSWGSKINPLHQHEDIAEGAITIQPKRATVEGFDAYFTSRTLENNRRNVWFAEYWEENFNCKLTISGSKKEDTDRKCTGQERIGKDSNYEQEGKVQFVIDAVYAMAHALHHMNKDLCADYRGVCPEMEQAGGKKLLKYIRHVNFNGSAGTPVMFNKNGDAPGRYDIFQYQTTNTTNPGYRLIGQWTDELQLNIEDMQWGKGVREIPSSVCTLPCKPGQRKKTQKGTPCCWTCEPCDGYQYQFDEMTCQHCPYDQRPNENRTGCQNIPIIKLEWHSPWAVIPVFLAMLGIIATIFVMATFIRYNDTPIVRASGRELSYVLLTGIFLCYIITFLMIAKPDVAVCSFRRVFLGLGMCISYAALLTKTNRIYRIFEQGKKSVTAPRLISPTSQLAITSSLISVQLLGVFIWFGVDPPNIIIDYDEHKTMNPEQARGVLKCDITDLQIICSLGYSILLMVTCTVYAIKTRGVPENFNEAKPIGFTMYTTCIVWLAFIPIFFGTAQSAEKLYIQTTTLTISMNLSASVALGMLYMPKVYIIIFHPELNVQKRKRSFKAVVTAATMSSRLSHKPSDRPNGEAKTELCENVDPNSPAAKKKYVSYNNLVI
T1 sequence (P35400 35-915): as above

In the case of `Cl.Cl.c1ccc(C(NCCNC(c2ccccc2)c2ccccc2)c2ccccc2)cc1` [AMN082, Dibenzhydrylethane-1,2-diamine dihydrochloride], the “triggering of increases of p44/42 MAPK activities (specificity)” value in series [1] is reported as “do not trigger increases”. `NC(CCP(=O)(O)O)C(=O)O` [L-AP4]: the “triggering of increases of p44/42 MAPK activities (specificity)” value in series [1] is reported as “do not trigger increases”. Besides, the “depression of forskolin-mediated luciferase activity” value at rat mGlu7a receptor was “about 83%”. In the case of “siRNA: Cy5 labeled siRNA, sense SEQ ID NO: 1 with C6SSC6 linker, antisense SEQ ID NO: 2; tested mixed with IgG (sense {Cy5}-mCmUmUrAmCrGmCmUrGrArGmUrAmCmUmUmCrGrAdTdT[C6SSC6]dT; antisense rUrCrGrArArGmUrArCrUmCrArGrCrGmUrArArGdT*dT)”, the “internalization without a covalent link between IgG and siRNA” value in the series with rat mGluR7 receptor is “only the IgG is internalized”.
